Where a SMILES comes first, the peptide text is derived from it. [ ]: non-standard residue; d: D form. The star is where a group is joined. NHCH2CH2OH = OCCN*; For = O=C*
Legend:
[1] = H+/Na+ transport assay of bead-derived peptides (one-point); format: biochemical; design: key: relative activity; mean of two control wells = 1.00; details: bead-derived peptide solution, EYPC/EYPG LUVs;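 further: relative to parent gramicidin A activity set to 1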
Method in brief: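 One-point screen: peptide + pyranine-loaded LUVs, 30 min RT with vortexing, 96-well. Read-out is fluorescence intensity scaled as 100 × (Ix – I0)/(Imax – I0). Imax from Triton X-100, I0 from untreated vesicles, and the mean of the two control wells is set to 1.00.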

[2] = cell viability/%
Method in brief: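 First, library peptide stocks are diluted 250-fold in RPMI1640 with 10% heat-inactivated FBS. Next, they are mixed with P388 cells to give 1 × 10^4 cells/mL and incubated 92 h at 37 °C, 5% CO2. Finally, viability (%) is scored by WST-1 absorbance at 415 nm.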

[3] = tested on: Streptococcus pyogenes SSI-9; test: Antibacterial activity assay of bead-derived peptides (three concentrations); format: cell-based; design: key: +++: inhibition by the 640-fold diluted peptide solution; ++: inhibition by the 160-fold diluted solution; +: inhibition by the 40-fold diluted solution; -: no inhibition; details: S. pyogenes, bead-derived peptide solution, three concentrations
Method in brief: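 Bead-derived library peptide stocks in DMSO were tested undiluted and after 4- and 16-fold DMSO dilution against S. pyogenes SSI-9 (2 × 10^5 CFU/well) in cation-adjusted Mueller Hinton Broth with 5% laked horse blood. After 18 h at 37 °C, wells were scored for precipitation of grown cells.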

SMILES | H+/Na+ transport activity normalized against the value of 1 (1.00) [1] | viability [2] [%] | antibacterial activity [3]
CC(C)C[C@@H](NC(=O)[C@H](C)NC(=O)CNC(=O)[C@@H](NC=O)C(C)C)C(=O)N[C@@H](C)C(=O)N[C@H](CC(C)C)C(=O)N[C@H](C(=O)N[C@H](CC(C)C)C(=O)N[C@@H](Cc1c[nH]c2ccccc12)C(=O)N[C@@H](C(=O)N[C@@H](Cc1c[nH]c2ccccc12)C(=O)N[C@H](CC(C)C)C(=O)N[C@@H](Cc1c[nH]c2ccccc12)C(=O)N[C@@H](C(=O)N[C@@H](Cc1c[nH]c2ccccc12)C(=O)NCCO)C(C)C)[C@H](C)O)C(C)C [compound 5561] (For-VGA[dL]A[dL]V[dL]W[dT]W[dL]W[dV]W-NHCH2CH2OH) | 1.05 | 100 | -
CC(C)C[C@@H](NC(=O)[C@H](Cc1c[nH]c2ccccc12)NC(=O)[C@@H](CC(C)C)NC(=O)[C@@H](NC(=O)[C@H](NC(=O)[C@H](C)NC(=O)[C@H](NC(=O)[C@H](C)NC(=O)CNC(=O)[C@@H](NC=O)C(C)C)[C@H](C)O)C(C)C)C(C)C)C(=O)N[C@@H](Cc1c[nH]c2ccccc12)C(=O)N[C@@H](C(=O)N[C@@H](Cc1c[nH]c2ccccc12)C(=O)N[C@@H](C(=O)N[C@@H](Cc1c[nH]c2ccccc12)C(=O)NCCO)C(C)C)C(C)C [compound 5563] (For-VGA[dT]A[dV]V[dL]W[dL]W[dV]W[dV]W-NHCH2CH2OH) | 1.08 | 100 | -
CC(C)C[C@@H](NC(=O)[C@H](C)NC(=O)[C@H](NC(=O)[C@H](C)NC(=O)CNC(=O)[C@@H](NC=O)C(C)C)C(C)C)C(=O)N[C@H](C(=O)N[C@H](CC(C)C)C(=O)N[C@@H](Cc1c[nH]c2ccccc12)C(=O)N[C@@H](C(=O)N[C@@H](Cc1c[nH]c2ccccc12)C(=O)N[C@@H](C(=O)N[C@@H](Cc1c[nH]c2ccccc12)C(=O)N[C@H](CC(C)C)C(=O)N[C@@H](Cc1c[nH]c2ccccc12)C(=O)NCCO)C(C)C)[C@H](C)O)C(C)C [compound 5572] (For-VGA[dV]A[dL]V[dL]W[dT]W[dV]W[dL]W-NHCH2CH2OH) | 1.24 | 100 | +
CC(C)C[C@@H](NC(=O)[C@H](C)NC(=O)CNC(=O)[C@@H](NC=O)C(C)C)C(=O)N[C@@H](C)C(=O)N[C@@H](C(=O)N[C@H](C(=O)N[C@@H](C(=O)N[C@@H](Cc1c[nH]c2ccccc12)C(=O)N[C@H](CC(C)C)C(=O)N[C@@H](Cc1c[nH]c2ccccc12)C(=O)N[C@@H](C(=O)N[C@@H](Cc1c[nH]c2ccccc12)C(=O)N[C@@H](C(=O)N[C@@H](Cc1c[nH]c2ccccc12)C(=O)NCCO)C(C)C)C(C)C)C(C)C)C(C)C)C(C)C [compound 5587] (For-VGA[dL]A[dV]V[dV]W[dL]W[dV]W[dV]W-NHCH2CH2OH) | 1.23 | 85.3 | ++
CC(C)C[C@@H](NC(=O)[C@H](C)NC(=O)[C@H](NC(=O)[C@H](C)NC(=O)CNC(=O)[C@@H](NC=O)C(C)C)[C@H](C)O)C(=O)N[C@H](C(=O)N[C@H](CC(C)C)C(=O)N[C@@H](Cc1c[nH]c2ccccc12)C(=O)N[C@H](CC(C)C)C(=O)N[C@@H](Cc1c[nH]c2ccccc12)C(=O)N[C@H](CC(C)C)C(=O)N[C@@H](Cc1c[nH]c2ccccc12)C(=O)N[C@H](CC(C)C)C(=O)N[C@@H](Cc1c[nH]c2ccccc12)C(=O)NCCO)C(C)C [compound 5618] (For-VGA[dT]A[dL]V[dL]W[dL]W[dL]W[dL]W-NHCH2CH2OH) | 1.13 | 85.1 | -
CC(C)C[C@@H](NC(=O)[C@H](C)NC(=O)CNC(=O)[C@@H](NC=O)C(C)C)C(=O)N[C@@H](C)C(=O)N[C@@H](C(=O)N[C@H](C(=O)N[C@@H](C(=O)N[C@@H](Cc1c[nH]c2ccccc12)C(=O)N[C@@H](C(=O)N[C@@H](Cc1c[nH]c2ccccc12)C(=O)N[C@H](CC(C)C)C(=O)N[C@@H](Cc1c[nH]c2ccccc12)C(=O)N[C@@H](C(=O)N[C@@H](Cc1c[nH]c2ccccc12)C(=O)NCCO)C(C)C)[C@H](C)O)C(C)C)C(C)C)C(C)C [compound 5657] (For-VGA[dL]A[dV]V[dV]W[dT]W[dL]W[dV]W-NHCH2CH2OH) | 1.09 | 81.3 | -
CC(C)C[C@@H](NC(=O)[C@H](C)NC(=O)CNC(=O)[C@@H](NC=O)C(C)C)C(=O)N[C@@H](C)C(=O)N[C@H](CC(C)C)C(=O)N[C@H](C(=O)N[C@H](CC(C)C)C(=O)N[C@@H](Cc1c[nH]c2ccccc12)C(=O)N[C@@H](C(=O)N[C@@H](Cc1c[nH]c2ccccc12)C(=O)N[C@@H](C(=O)N[C@@H](Cc1c[nH]c2ccccc12)C(=O)N[C@H](CC(C)C)C(=O)N[C@@H](Cc1c[nH]c2ccccc12)C(=O)NCCO)[C@H](C)O)C(C)C)C(C)C [compound 5736] (For-VGA[dL]A[dL]V[dL]W[dV]W[dT]W[dL]W-NHCH2CH2OH) | 1.11 | 95.5 | -
CC(C)C[C@@H](NC(=O)[C@H](Cc1c[nH]c2ccccc12)NC(=O)[C@H](NC(=O)[C@@H](NC(=O)[C@H](NC(=O)[C@H](C)NC(=O)[C@H](NC(=O)[C@H](C)NC(=O)CNC(=O)[C@@H](NC=O)C(C)C)C(C)C)C(C)C)C(C)C)C(C)C)C(=O)N[C@@H](Cc1c[nH]c2ccccc12)C(=O)N[C@H](CC(C)C)C(=O)N[C@@H](Cc1c[nH]c2ccccc12)C(=O)N[C@@H](C(=O)N[C@@H](Cc1c[nH]c2ccccc12)C(=O)NCCO)C(C)C [compound 5742] (For-VGA[dV]A[dV]V[dV]W[dL]W[dL]W[dV]W-NHCH2CH2OH) | 1.16 | 11.1 | ++
CC(C)C[C@@H](NC(=O)[C@H](C)NC(=O)CNC(=O)[C@@H](NC=O)C(C)C)C(=O)N[C@@H](C)C(=O)N[C@@H](C(=O)N[C@H](C(=O)N[C@@H](C(=O)N[C@@H](Cc1c[nH]c2ccccc12)C(=O)N[C@@H](C(=O)N[C@@H](Cc1c[nH]c2ccccc12)C(=O)N[C@H](CC(C)C)C(=O)N[C@@H](Cc1c[nH]c2ccccc12)C(=O)N[C@@H](C(=O)N[C@@H](Cc1c[nH]c2ccccc12)C(=O)NCCO)C(C)C)[C@H](C)O)[C@H](C)O)C(C)C)C(C)C [compound 5747] (For-VGA[dL]A[dV]V[dT]W[dT]W[dL]W[dV]W-NHCH2CH2OH) | 1.09 | 100 | -
CNC(=O)C[C@@H](NC(=O)[C@H](Cc1c[nH]c2ccccc12)NC(=O)[C@H](NC(=O)[C@@H](NC(=O)[C@@H](CC(C)C)NC(=O)[C@H](C)NC(=O)[C@H](NC(=O)[C@H](C)NC(=O)CNC(=O)[C@@H](NC=O)C(C)C)C(C)C)C(C)C)C(C)C)C(=O)N[C@@H](Cc1c[nH]c2ccccc12)C(=O)N[C@H](CC(C)C)C(=O)N[C@@H](Cc1c[nH]c2ccccc12)C(=O)N[C@H](CC(C)C)C(=O)N[C@@H](Cc1c[nH]c2ccccc12)C(=O)NCCO [compound 5838] (For-VGA[dV]A[dL]V[dV]W[dD](NHMe)W[dL]W[dL]W-NHCH2CH2OH) | 1.12 | 100 | -
CNC(=O)C[C@@H](NC(=O)[C@@H](NC(=O)[C@@H](CC(C)C)NC(=O)[C@H](C)NC(=O)[C@H](NC(=O)[C@H](C)NC(=O)CNC(=O)[C@@H](NC=O)C(C)C)C(C)C)C(C)C)C(=O)N[C@@H](Cc1c[nH]c2ccccc12)C(=O)N[C@@H](C(=O)N[C@@H](Cc1c[nH]c2ccccc12)C(=O)N[C@@H](C(=O)N[C@@H](Cc1c[nH]c2ccccc12)C(=O)N[C@H](CC(C)C)C(=O)N[C@@H](Cc1c[nH]c2ccccc12)C(=O)NCCO)C(C)C)C(C)C [compound 5991] (For-VGA[dV]A[dL]V[dD](NHMe)W[dV]W[dV]W[dL]W-NHCH2CH2OH) | 1.00 | 94.7 | -
CC(C)C[C@@H](NC(=O)[C@H](C)NC(=O)[C@H](NC(=O)[C@H](C)NC(=O)CNC(=O)[C@@H](NC=O)C(C)C)C(C)C)C(=O)N[C@H](C(=O)N[C@@H](C(=O)N[C@@H](Cc1c[nH]c2ccccc12)C(=O)N[C@H](CC(C)C)C(=O)N[C@@H](Cc1c[nH]c2ccccc12)C(=O)N[C@H](CC(C)C)C(=O)N[C@@H](Cc1c[nH]c2ccccc12)C(=O)N[C@@H](C(=O)N[C@@H](Cc1c[nH]c2ccccc12)C(=O)NCCO)C(C)C)[C@H](C)O)C(C)C [compound 6160] (For-VGA[dV]A[dL]V[dT]W[dL]W[dL]W[dV]W-NHCH2CH2OH) | 1.07 | 70.3 | +
CNC(=O)C[C@@H](NC(=O)[C@H](Cc1c[nH]c2ccccc12)NC(=O)[C@H](NC(=O)[C@H](Cc1c[nH]c2ccccc12)NC(=O)[C@H](NC(=O)[C@H](Cc1c[nH]c2ccccc12)NC(=O)[C@@H](CC(C)C)NC(=O)[C@@H](NC(=O)[C@@H](CC(C)C)NC(=O)[C@H](C)NC(=O)[C@@H](CC(C)C)NC(=O)[C@H](C)NC(=O)CNC(=O)[C@@H](NC=O)C(C)C)C(C)C)C(C)C)C(C)C)C(=O)N[C@@H](Cc1c[nH]c2ccccc12)C(=O)NCCO [compound 6265] (For-VGA[dL]A[dL]V[dL]W[dV]W[dV]W[dD](NHMe)W-NHCH2CH2OH) | 1.03 | 79.9 | -

— publication PMC7531004, “Discovery of gramicidin A analogues with altered activities by multidimensional screening of a one-bead-one-compound library” (Nature Communications, 2020)
